Counter-ions that a name gives are not always drawn.
For `COC(=O)C1=C(CCc2nccs2)NC(CC(=O)N2CCN(CC(C)(C)CNC(C)=O)CC2)=C(C(=O)OC)C1c1c(Cl)cccc1Cl` (stereo not drawn) [Example 16, Dimethyl 2-[2-[4-[3-(acetylamino)-2,2-dimethylpropyl]-1-piperazinyl]-2-oxoethyl]-4-(2,6-dichlorophenyl)-6-[2-(1,3-thiazol-2-yl)ethyl]-1,4-dihydro-3,5 pyridinedicarboxylate], the melting point was 104 to 107 °C. In the case of `COC(=O)C1=C(CCc2nccs2)NC(CC(=O)N2CCN(CC3(C#N)CCCCC3)CC2)=C(C(=O)OC)C1c1c(Cl)cccc1Cl` (stereo not drawn) (as salt: HCl) [Example 1, Dimethyl 2-[2-[4-[(1-cyanocyclohexyl)methyl]-1-piperazinyl]-2-oxoethyl]-4-(2,6-dichlorophenyl)-6-[2-(1,3-thiazol-2-yl)ethyl]-1,4-dihydro-3,5-pyridinedicarboxylate], the melting point was 211 to 213 °C (dec.). With `COC(=O)C1=C(CCc2nccs2)NC(CC(=O)N2CCN(CCCCN3CCOCC3)CC2)=C(C(=O)OC)C1c1c(Cl)cccc1Cl` (stereo not drawn) (as salt: HCl) [Example 38, Dimethyl 4-(2,6-dichlorophenyl)-2-[2-[4-[4-(4-morpholinyl)butyl]-1-piperazinyl]-2-oxoethyl]-6-[2-(1,3-thiazol-2-yl)ethyl]-1,4-dihydro-3,5-pyridinedicarboxylate] the melting point was 169 to 177 °C (dec.). Work on `CCNCC(C)(C)CN1CCN(C(=O)CC2=C(C(=O)OC)C(c3c(Cl)cccc3Cl)C(C(=O)OC)=C(CCc3nccs3)N2)CC1` (stereo not drawn) [Example 19, Dimethyl 4-(2,6-dichlorophenyl)-2-[2-[4-[3-(ethylamino)-2,2-dimethylpropyl]-1-piperazinyl]-2-oxoethyl]-6-[2-(1,3-thiazol-2-yl)ethyl]-1,4-dihydro-3,5-pyridinedicarboxylate] yielded a melting point of 154 to 157 °C. In the case of `COC(=O)C1=C(CCc2nccs2)NC(CC(=O)N2CCN(CCC3(O)CCCCC3)CC2)=C(C(=O)OC)C1c1c(Cl)cccc1Cl` (stereo not drawn) (as salt: HCl) [Example 28, Dimethyl 4-(2,6-dichlorophenyl)-2-[2-[4-[2-(1-hydroxycyclohexyl)ethyl]-1-piperazinyl]-2-oxoethyl]-6-[2-(1,3-thiazol-2-yl)ethyl]-1,4-dihydro-3,5-pyridinedicarboxylate], the melting point was 188 to 190 °C (dec.). In the case of `COC(=O)C1=C(CCc2nccs2)NC(CC(=O)N2CCN(CCC(C)(C)N3CCCC3=O)CC2)=C(C(=O)OC)C1c1c(Cl)cccc1Cl` (stereo not drawn) (as salt: HCl) [Example 20, Dimethyl 4-(2,6-dichlorophenyl)-2-[2-[4-[3-methyl-3-(2-oxo-1-pyrrolidinyl)butyl]-1-piperazinyl]-2-oxoethyl]-6-[2-(1,3-thiazol-2-yl)ethyl]-1,4-dihydro-3,5-pyridinedicarboxylate], the melting point was 179 °C (dec.). Work on `COC(=O)C1=C(CCc2nccs2)NC(CC(=O)N2CCN(CC(C)(C)C#N)CC2)=C(C(=O)OC)C1c1c(Cl)cccc1Cl` (stereo not drawn) [Example 15, Dimethyl 2-[2-[4-(2-cyano-2-methylpropyl)-1-piperazinyl]-2-oxoethyl]-4-(2,6-dichlorophenyl)-6-[2-(1,3-thiazol-2-yl)ethyl]-1,4-dihydro-3,5-pyridinedicarboxylate] yielded a melting point of 120 to 122 °C. In the case of `CCN(CC)C1(CCN2CCN(C(=O)CC3=C(C(=O)OC)C(c4c(Cl)cccc4Cl)C(C(=O)OC)=C(CCc4nccs4)N3)CC2)CCCC1` (stereo not drawn) (as salt: HCl) [Example 34, Dimethyl 4-(2,6-dichlorophenyl)2-[2-[4-[2-[1-(diethylamino)cyclopentyl]ethyl]-1-piperazinyl]-2-oxoethyl]-6-[2-(1,3-thiazol-2-yl)ethyl]-1,4-dihydro-3,5-pyridinedicarboxylate], the melting point was 195 to 200 °C (dec.). For `COC(=O)C1=C(CCc2nccs2)NC(CC(=O)N2CCN(CCC3(N4CCCC4=O)CCCC3)CC2)=C(C(=O)OC)C1c1c(Cl)cccc1Cl` (stereo not drawn) (as salt: HCl) [Example 33, Dimethyl 4-(2,6-dichlorophenyl)-2-[2-oxo-2-[4-[2-[1-(2-oxo-1-pyrrolidinyl)cyclopentyl]ethyl]-1-piperazinyl]ethyl]-6-[2-(1,3-thiazol-2-yl)ethyl]-1,4-dihydro-3,5-pyridinedicarboxylate], the melting point was 175 to 180 °C (dec.). For `COC(=O)C1=C(CCc2nccs2)NC(CC(=O)N2CCN(CCCN3CCCC3=O)CC2)=C(C(=O)OC)C1c1c(Cl)cccc1Cl` (stereo not drawn) (as salt: HCl) [Example 22, Dimethyl 4-(2,6-dichlorophenyl)-2-[2-oxo-2-[4-[3-(2-oxo-1-pyrrolidinyl)propyl]-1-piperazinyl]ethyl]-6-[2-(1,3-thiazol-2-yl)ethyl]-1,4-dihydro-3,5-pyridinedicarboxylate], the melting point was 185 to 190 °C (dec.). For `CCC(CC)(CCN1CCN(C(=O)CC2=C(C(=O)OC)C(c3c(Cl)cccc3Cl)C(C(=O)OC)=C(CCc3nccs3)N2)CC1)N1CCCC1=O` (stereo not drawn) (as salt: HCl) [Example 39, Dimethyl 4-(2,6-dichlorophenyl)-2-[2-[4-[3-ethyl-3-(2-oxo-1-pyrrolidinyl)pentyl]-1-piperazinyl]-2-oxoethyl]-6-[2-(1,3-thiazol-2-yl)ethyl]-1,4-dihydro-3,5-pyridinedicarboxylate], the melting point was 151 to 155 °C (dec.). With `CCNCC1(CN2CCN(C(=O)CC3=C(C(=O)OC)C(c4c(Cl)cccc4Cl)C(C(=O)OC)=C(CCc4nccs4)N3)CC2)CCCCC1` (stereo not drawn) (as salt: HCl) [Example 3, Dimethyl 4-(2,6-dichlorophenyl)-2-[2-[4-[[1-[(ethylamino)methyl]cyclohexyl]methyl]-1-piperazinyl]-2-oxoethyl]-6-[2-(1,3-thiazol-2-yl)ethyl]-1,4-dihydro-3,5-pyridinedicarboxylate] the melting point was 206 to 210 °C (dec.). For `COC(=O)C1=C(CCc2nccs2)NC(CC(=O)N2CCN(CC(C)(C)CNS(C)(=O)=O)CC2)=C(C(=O)OC)C1c1c(Cl)cccc1Cl` (stereo not drawn) [Example 13, Dimethyl 4-(2,6-dichlorophenyl)-2-[2-[4-[2,2-dimethyl-3-[(methylsulfonyl)amino]propyl]-1-piperazinyl]-2-oxoethyl]-6-[2-(1,3-thiazol-2-yl)ethyl]-1,4-dihydro-3,5-pyridinedicarboxylate], the melting point was 132 to 136 °C. Work on `COC(=O)C1=C(CCc2nccs2)NC(CC(=O)N2CCN(CC(C)(C)CN)CC2)=C(C(=O)OC)C1c1c(Cl)cccc1Cl` (stereo not drawn) [Example 18, Dimethyl 2-[2-[4-(3-amino-2,2-dimethylpropyl)-1-piperazinyl]-2-oxoethyl]-4-(2,6-dichlorophenyl)-6-[2-(1,3-thiazol-2-yl)ethyl]-1,4-dihydro-3,5-pyridinedicarboxylate] yielded a melting point of 158 to 162 °C. In the case of `COC(=O)C1=C(CCc2nccs2)NC(CC(=O)N2CCN(CC3(CNC4CCCC4)CCCC3)CC2)=C(C(=O)OC)C1c1c(Cl)cccc1Cl` (stereo not drawn) (as salt: HCl) [Example 11, Dimethyl 2-[2-[4-[[1-[(cyclopentylamino)methyl]cyclopentyl]methyl]-1-piperazinyl]-2-oxoethyl]-4-(2,6dichlorophenyl)-6-[2-(1,3-thiazol-2-yl)ethyl]-1,4-dihydro-3,5-pyridinedicarboxylate], the melting point was 174 to 177 °C (dec.).
